Assay: Measurement of exothermic temperature during polymerization
Format: physicochemical
Conditions: FIG. 3
Method: The composite material was mixed for 30 seconds and injected to a mold having a size in 5 mm of height and 3 mm of radius. Then, the temperature changes was measured in 3 samples per each group by inserting a thermocouple and read with a thermocouple reader (Yocogawa, Japan).

temperature changes during polymerizing, in words: excessively exothermic
Compound: C=C(C#N)C(=O)OCCCC [BCA, n-butyl-2-cyanoacrylate]

From patent US7449498B2, “Composite materials for bone defect filling and bone replacement” (Yesbio Co., Ltd., priority 2005, dated 2008)
